Earlier results on one compound are cited in patent US8535946B2, “Biomarker to measure drug efficacy in enteropathic disease” (The Board of Trustees of the Leland Stanford Junior …, priority 2007, dated 2013).

The conditions of this data set: humans.

Take `Cc1ncc2n1-c1ccc(Cl)cc1C(c1ccccc1F)=NC2` [midazolam]: the “dose excreted unchanged in the urine” value is on record as “less than 1%”.
